From patent US8598202B2, “Aryl-hydroxyethylamino-pyrimidines and triazines as modulators of fatty acid amide hydrolase” (Janssen Pharmaceutica NV, priority 2008, dated 2013) come the findings set out here.

The IC50 is the point on the concentration scale where inhibition reaches its midpoint. A higher IC50 goes with a need for much substance.

Counter-ions that a name gives are not always drawn.

The target in one experiment is T1, FAAH (Homo sapiens, UniProt O00519).
T1 sequence (O00519 1-579): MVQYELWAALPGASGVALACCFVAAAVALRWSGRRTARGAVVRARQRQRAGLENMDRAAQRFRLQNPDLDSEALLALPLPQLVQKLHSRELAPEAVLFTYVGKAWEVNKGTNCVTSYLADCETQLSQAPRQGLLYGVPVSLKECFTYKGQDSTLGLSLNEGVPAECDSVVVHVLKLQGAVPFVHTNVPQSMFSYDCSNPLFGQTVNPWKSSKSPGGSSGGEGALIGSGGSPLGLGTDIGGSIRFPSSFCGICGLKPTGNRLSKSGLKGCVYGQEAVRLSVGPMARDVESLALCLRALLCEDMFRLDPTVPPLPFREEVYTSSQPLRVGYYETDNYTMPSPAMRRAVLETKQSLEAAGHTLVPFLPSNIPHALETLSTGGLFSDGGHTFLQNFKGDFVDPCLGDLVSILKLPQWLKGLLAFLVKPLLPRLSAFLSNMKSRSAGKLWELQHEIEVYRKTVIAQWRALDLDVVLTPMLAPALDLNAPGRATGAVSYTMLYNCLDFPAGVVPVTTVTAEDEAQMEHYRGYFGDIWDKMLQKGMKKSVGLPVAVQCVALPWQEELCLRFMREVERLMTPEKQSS
Kind of experiment: Assay Method 1: FAAH assay, 3H-anandamide hydrolysis in homogenate of T84 cells or SK-N-MC cells transfected with human FAAH.

In the next experiment the target is T2, Rat FAAH-1 (Rattus norvegicus, UniProt P97612).
T2 sequence (P97612 1-579): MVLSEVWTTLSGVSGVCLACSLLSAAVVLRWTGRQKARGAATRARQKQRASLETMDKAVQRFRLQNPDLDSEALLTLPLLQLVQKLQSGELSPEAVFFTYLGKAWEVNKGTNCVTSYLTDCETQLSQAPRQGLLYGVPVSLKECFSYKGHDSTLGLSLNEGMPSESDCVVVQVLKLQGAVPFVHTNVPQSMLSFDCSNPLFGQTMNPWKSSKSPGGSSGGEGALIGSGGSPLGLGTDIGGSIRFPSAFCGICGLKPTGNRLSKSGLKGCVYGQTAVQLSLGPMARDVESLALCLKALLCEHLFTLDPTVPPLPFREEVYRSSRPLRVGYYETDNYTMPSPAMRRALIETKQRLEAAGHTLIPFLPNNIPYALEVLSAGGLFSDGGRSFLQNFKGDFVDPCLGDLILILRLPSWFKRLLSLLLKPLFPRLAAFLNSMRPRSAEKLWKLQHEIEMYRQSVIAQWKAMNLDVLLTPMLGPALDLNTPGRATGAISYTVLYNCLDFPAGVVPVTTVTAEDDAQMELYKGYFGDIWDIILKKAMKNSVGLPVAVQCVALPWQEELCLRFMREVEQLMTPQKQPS
Kind of experiment: Assay Method 2: rat FAAH-1 assay, 3H-anandamide hydrolysis in homogenate of SK-N-MC cells transfected with rat FAAH.

Description for Rat FAAH-1: The assay mixture consisted of 50 μL of the cell homogenate, 10 μL of the test compound, and 40 μL of anandamide [1-^3H-ethanolamine] (^3H-AEA, Perkin-Elmer, 10.3 Ci/mmol), which was added last, for a final tracer concentration of 80 nM. The reaction mixture was incubated at rt for 1 h. During the incubation, 96-well Multiscreen filter plates (catalog number MAFCNOB50; Millipore, Bedford, Mass., USA) were loaded with 25 μL of activated charcoal (Multiscreen column loader, catalog number MACL09625, Millipore) and washed once with 100 μL of MeOH. […] After the 1 h incubation, 60 μL of the reaction mixture were transferred to the charcoal plates, which were then assembled on top of the DYNEX plates using Centrifuge Alignment Frames (catalog number MACF09604, Millipore). The unbound labeled ethanolamine was centrifuged through to the bottom plate (5 min at 2000 rpm), which was preloaded with the scintillant, as described above. The plates were sealed and left at rt for 1 h before counting on a Hewlett Packard TopCount.

As for `O[C@@H](CNc1cc(-c2ccc3c(C(F)(F)C(F)(F)F)noc3c2)ncn1)c1ccc(F)cc1` [Example 176, (1R)-1-(4-fluorophenyl)-2-({6-[3-(pentafluoroethyl)-1,2-benzisoxazol-6-yl]pyrimidin-4-yl}amino)ethanol trifluoroacetic acid salt], the results for the IC50 against FAAH and at Rat FAAH-1 were 9 nM and 10 nM, respectively.
With `O[C@@H](CNc1cc(-c2ccc3c(C(F)(F)F)noc3c2)ncn1)c1ccc(F)cc1` [Example 177, (1R)-1-(4-Fluorophenyl)-2-({6-[3-(trifluoromethyl)-1,2-benzisoxazol-6-yl]pyrimidin-4-yl}amino)ethanol trifluoroacetic acid salt], the IC50 against FAAH and at Rat FAAH-1 was 3 nM in each case.
As to `OC(CNc1cc(-c2ccc(Cl)cc2)ncn1)c1ccccc1` (stereo not shown) [Example 2, 2-{[6-(4-Chlorophenyl)pyrimidin-4-yl]amino}-1-phenylethanol], the results for the IC50 on FAAH and on Rat FAAH-1 were 350 nM and 1300 nM, respectively.
With `OC(CNc1cc(-c2ccc(C(F)(F)F)c(Cl)c2)ncn1)c1ccc2c(c1)OCCO2` (stereo not shown) [Example 199, 2-({6-[3-Chloro-4-(trifluoromethyl)phenyl]pyrimidin-4-yl}amino)-1-(2,3-dihydro-1,4-benzodioxin-6-yl)ethanol], the IC50 on FAAH was 500 nM; against Rat FAAH-1, 120 nM.
For `O[C@@H](CNc1cc(-c2ccc(Cl)c(Cl)c2)nc(C2CC2)n1)c1ccccc1` [Example 136, (1R)-2-{[2-Cyclopropyl-6-(3,4-dichlorophenyl)pyrimidin-4-yl]amino}-1-phenylethanol], the IC50 against FAAH turned out to be 84 nM; against Rat FAAH-1, 340 nM.
Take `OC(CNc1cc(-c2c(C(F)(F)F)cccc2C(F)(F)F)ncn1)c1ccccc1` (stereo not shown) [CE1, 2-[6-(2,6-Bis-trifluoromethyl-phenyl)-pyrimidin-4-ylamino]-1-phenyl-ethanol, reference compound]: the IC50 against FAAH and at Rat FAAH-1 was greater than 10000 nM throughout.
Consider `CSc1ccc(C(O)CNc2cc(-c3ccc(C(F)(F)F)c(Cl)c3)ncn2)cc1` (stereo not shown) [Example 167, 2-({6-[3-Chloro-4-(trifluoromethyl)phenyl]pyrimidin-4-yl}amino)-1-[4-(methylsulfanyl)phenyl]ethanol], for which the IC50 against FAAH worked out at 60 nM; against Rat FAAH-1, 20 nM.
`OC(CNc1cc(-c2ccc(C(F)(F)F)c(Cl)c2)ncn1)c1c(F)cccc1F` (stereo not shown) [Example 211, 2-({6-[3-Chloro-4-(trifluoromethyl)phenyl]pyrimidin-4-yl}amino)-1-(2,6-difluorophenyl)ethanol]: the IC50 worked out at 56 nM against FAAH and 50 nM against Rat FAAH-1.
Take `Cn1ccc2cc(-c3cc(NC[C@H](O)c4ccccc4)ncn3)ccc21` [Example 90, (1R)-2-{[6-(1-Methyl-1H-indol-5-yl)pyrimidin-4-yl]amino}-1-phenylethanol trifluoroacetic acid salt]: the IC50 at FAAH came out at 4 nM; at Rat FAAH-1, 675 nM.
Turning to `OC(CNc1cc(-c2ccc(OC(F)(F)F)cc2)ncn1)c1ccc(C(F)(F)F)cc1` (stereo not shown) [Example 108, 2-[(6-{4-[(Trifluoromethyl)oxy]phenyl}pyrimidin-4-yl)amino]-1-[4-(trifluoromethyl)phenyl]ethanol], the IC50 at FAAH was 110 nM; at Rat FAAH-1, 150 nM.
The corresponding values for `CN(C)S(=O)(=O)c1ccc(-c2cc(NC[C@H](O)c3ccccc3)ncn2)cc1` [Example 76, 4-(6-{[(2R)-2-Hydroxy-2-phenylethyl]amino}pyrimidin-4-yl)-N,N-dimethylbenzenesulfonamide] are 14 nM and 126 nM.
For `OC(CNc1cc(-c2cc3ccccc3s2)ncn1)c1ccccc1` (stereo not shown) [Example 227, 2-(6-Benzo[b]thiophen-2-yl-pyrimidin-4-ylamino)-1-phenyl-ethanol], the IC50 is 33 nM against FAAH and 216 nM against Rat FAAH-1.
In the case of `CCCOc1ccc(-c2cc(NC[C@H](O)c3ccccc3)ncn2)cc1` [Example 44, (1R)-1-Phenyl-2-{[6-(4-propoxyphenyl)pyrimidin-4-yl]amino}ethanol trifluoroacetic acid salt], the IC50 against FAAH came out at 50 nM; against Rat FAAH-1 it was 600 nM.
`N#Cc1cccc(C(O)CNc2cc(-c3ccc(C(F)(F)F)c(Cl)c3)ncn2)c1` (stereo not shown) [Example 206, 3-[2-({6-[3-Chloro-4-(trifluoromethyl)phenyl]pyrimidin-4-yl}amino)-1-hydroxyethyl]benzonitrile]: the IC50 came to 25 nM against FAAH and 15 nM on Rat FAAH-1.
On to `COc1nc(NC[C@H](O)c2ccccc2)cc(-c2ccc(C(F)(F)F)c(Cl)c2)n1` [Example 164, (1R)-2-({6-[3-Chloro-4-(trifluoromethyl)phenyl]-2-methoxypyrimidin-4-yl}amino)-1-phenylethanol trifluoroacetic acid salt], for which the IC50 against FAAH worked out at 15 nM; on Rat FAAH-1, 14 nM.
The corresponding values for `COc1cc(C(O)CNc2cc(-c3ccc(OC(F)(F)F)cc3)ncn2)ccc1O` (stereo not shown) [Example 112, 4-{1-Hydroxy-2-[(6-{4-[(trifluoromethyl)oxy]phenyl}pyrimidin-4-yl)amino]ethyl}-2-(methyloxy)phenol] are 524 nM and 760 nM.
The like results for `OC(CNc1cc(-c2ccc(C(F)(F)F)c(Cl)c2)ncn1)c1ccc(F)cc1` (stereo not shown) [Example 190, 2-({6-[3-Chloro-4-(trifluoromethyl)phenyl]pyrimidin-4-yl}amino)-1-(4-fluorophenyl)ethanol] were, in that order, 7 nM and 12 nM.
In the case of `CC(=O)Nc1cccc(-c2cc(NCC(O)c3ccccc3)ncn2)c1` (stereo not shown) [Example 242, N-{3-[6-(2-Hydroxy-2-phenyl-ethylamino)-pyrimidin-4-yl]-phenyl}-acetamide], the IC50 on FAAH and against Rat FAAH-1 was greater than 10000 nM each time.
In the case of `O[C@@H](CNc1cc(-c2ccc(F)c(Cl)c2)ncn1)c1ccccc1` [Example 83, (1R)-2-{[6-(3-Chloro-4-fluorophenyl)pyrimidin-4-yl]amino}-1-Phenylethanol trifluoroacetic acid salt], the half-inhibitory concentration (IC50) against FAAH came out at 210 nM; against Rat FAAH-1 it was 654 nM.
Consider `CCCCOc1ccc(-c2cc(NC[C@H](O)c3ccccc3)ncn2)cc1F` [Example 33, (1R)-2-{[6-(4-Butoxy-3-fluorophenyl)pyrimidin-4-yl]amino}-1-phenylethanol trifluoroacetic acid salt], for which the IC50 at FAAH came to 270 nM; at Rat FAAH-1 it was 2000 nM.
`O=Cc1ccc(-c2cc(NC[C@H](O)c3ccccc3)ncn2)cc1` [Example 22, 4-(6-{[(2R)-2-Hydroxy-2-phenylethyl]amino}pyrimidin-4-yl)benzaldehyde]: the results for the IC50 against FAAH and against Rat FAAH-1 were 81 nM and 270 nM, respectively.
As to `COc1ccc(-c2cc(NC[C@H](O)c3ccccc3)ncn2)cc1F` [Example 71, (1R)-2-{[6-(3-Fluoro-4-methoxyphenyl)pyrimidin-4-yl]amino}-1-pPhenylethanol], the IC50 on FAAH worked out at 14 nM; on Rat FAAH-1, 76 nM.
The like results for `OC(CNc1cc(-c2ccc(C(F)(F)F)c(Cl)c2)ncn1)c1cc(-c2ccc(Cl)cc2Cl)no1` (stereo not shown) [Example 215, 2-[6-(3-Chloro-4-trifluoromethyl-phenyl)-pyrimidin-4-ylamino]-1-[3-(2,4-dichloro-phenyl)-isoxazol-5-yl]-ethanol] were, in that order, 240 nM and 1000 nM.
On to `OC(CNc1cc(-c2ccc(C(F)(F)F)c(Cl)c2)ncn1)c1cc2ccccc2s1` (stereo not shown) [Example 196, 1-(1-Benzothiophen-2-yl)-2-({6-[3-chloro-4-(trifluoromethyl)phenyl]pyrimidin-4-yl}amino)ethanol], for which the IC50 at FAAH was determined as 108 nM; against Rat FAAH-1 it was 43 nM.
As to `OC(CNc1cc(-c2ccc(OC(F)(F)F)cc2)ncn1)c1ccc(Cl)cc1` (stereo not shown) [Example 109, 1-(4-Chlorophenyl)-2-[(6-{4-[(trifluoromethyl)oxy]phenyl}pyrimidin-4-yl)amino]ethanol], the results for the IC50 on FAAH and at Rat FAAH-1 were 150 nM and 42 nM, respectively.
For the compound `OC(CNc1cc(-c2ccc(C(F)(F)F)c(Cl)c2)ncn1)c1ccccc1OC(F)F` (stereo not shown) [Example 189, 2-({6-[3-Chloro-4-(trifluoromethyl)phenyl]pyrimidin-4-yl}amino)-1-[2-(difluoromethoxy)phenyl]ethanol], the IC50 was found to be 170 nM against FAAH and 150 nM on Rat FAAH-1.
